Columns and labels:
Assay in all cases: relative viability (nuclei count vs DMSO), 5 days (fraction); higher = more cells survive
GW-2580 + OSI-027 = compound: COC1=CC=C(C=C1)COC2=C(C=C(C=C2)CC3=CN=C(N=C3N)N)OC [GW-2580] + COc1cccc2cc(-c3nc([C@H]4CC[C@H](C(=O)O)CC4)n4ncnc(N)c34)[nH]c12 [OSI-027] (partner 0.5 µM)
How it was run: (§1)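 Relative viability was taken as the ratio of nuclei in treated wells to nuclei in vehicle wells. Lung cancer cell lines in 1536-well plates received compounds by pin tool one day after seeding, either one drug alone or a fixed anchor-drug dose plus five library-drug doses (not always all listed) in √10 steps. Nuclei were counted on 4× images after 5 days of treatment, and values are medians of duplicate plates.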

Fedratinib + Lapatinib = compound: Cc1cnc(Nc2ccc(OCCN3CCCC3)cc2)nc1Nc1cccc(S(=O)(=O)NC(C)(C)C)c1 [Fedratinib] + CS(=O)(=O)CCNCc1ccc(-c2ccc3ncnc(Nc4ccc(OCc5cccc(F)c5)c(Cl)c4)c3c2)o1 [Lapatinib] (partner 2 µM)
How it was run: as §1

Fedratinib + Palbociclib = compound: Cc1cnc(Nc2ccc(OCCN3CCCC3)cc2)nc1Nc1cccc(S(=O)(=O)NC(C)(C)C)c1 [Fedratinib] + CC(=O)c1c(C)c2cnc(Nc3ccc(N4CCNCC4)cn3)nc2n(C2CCCC2)c1=O [Palbociclib] (partner 0.5 µM)
How it was run: as §1

Fedratinib + AZD7762 = compound: Cc1cnc(Nc2ccc(OCCN3CCCC3)cc2)nc1Nc1cccc(S(=O)(=O)NC(C)(C)C)c1 [Fedratinib] + NC(=O)Nc1cc(-c2cccc(F)c2)sc1C(=O)N[C@H]1CCCNC1 [AZD7762] (partner 0.2 µM)
How it was run: as §1

GW-2580 + Alpelisib = compound: COC1=CC=C(C=C1)COC2=C(C=C(C=C2)CC3=CN=C(N=C3N)N)OC [GW-2580] + Cc1nc(NC(=O)N2CCC[C@H]2C(N)=O)sc1-c1ccnc(C(C)(C)C(F)(F)F)c1 [Alpelisib] (partner 2 µM)
How it was run: as §1

Fedratinib + Bortezomib = compound: Cc1cnc(Nc2ccc(OCCN3CCCC3)cc2)nc1Nc1cccc(S(=O)(=O)NC(C)(C)C)c1 [Fedratinib] + CC(C)C[C@H](NC(=O)[C@H](Cc1ccccc1)NC(=O)c1cnccn1)B(O)O [Bortezomib] (partner 0.002 µM)
How it was run: as §1

Cell Line | relative viability (GW-2580 + OSI-027; first compound 0.08 µM) | relative viability (GW-2580 + OSI-027; first compound 0.8 µM) | relative viability (GW-2580 + OSI-027; first compound 2.53 µM) | relative viability (GW-2580 + OSI-027; first compound 8 µM) | relative viability (Fedratinib + Lapatinib; first compound 0.1 µM) | relative viability (Fedratinib + Lapatinib; first compound 0.3162 µM) | relative viability (Fedratinib + Lapatinib; first compound 1 µM) | relative viability (Fedratinib + Palbociclib; first compound 0.1 µM) | relative viability (Fedratinib + Palbociclib; first compound 0.3162 µM) | relative viability (Fedratinib + Palbociclib; first compound 1 µM) | relative viability (Fedratinib + AZD7762; first compound 0.1 µM) | relative viability (Fedratinib + AZD7762; first compound 0.3162 µM) | relative viability (Fedratinib + AZD7762; first compound 1 µM) | relative viability (GW-2580 + Alpelisib; first compound 0.08 µM) | relative viability (GW-2580 + Alpelisib; first compound 0.8 µM) | relative viability (GW-2580 + Alpelisib; first compound 2.53 µM) | relative viability (GW-2580 + Alpelisib; first compound 8 µM) | relative viability (Fedratinib + Bortezomib; first compound 0.1 µM) | relative viability (Fedratinib + Bortezomib; first compound 0.3162 µM) | relative viability (Fedratinib + Bortezomib; first compound 1 µM)
NCI-H1437 | 0.943 | 0.864 | 0.889 | 0.85 | 0.821 | 0.827 | 0.19 | 0.264 | 0.308 | 0.293 | 1.13 | 1.13 | 1.09 | 1.12 | 1.11 | 0.892 | 0.81 | 0.432 | 0.473 | 0.191
NCI-H1792 | 0.763 | 1.14 |  | 0.883 | 0.879 | 0.905 | 0.827 | 0.684 | 0.622 | 0.611 | 0.58 | 0.774 | 0.483 | 0.552 | 0.809 | 0.288 | 0.907 | 1.14 | 0.994 | 0.887
NCI-H650 | 0.55 | 0.585 | 0.465 | 0.518 |  | 1.07 | 0.347 | 0.285 | 0.345 | 0.324 | 1.17 | 0.933 | 0.755 | 1.26 | 1.06 | 0.914 | 1.14 |  | 0.84 | 0.77
201T | 0.647 | 0.994 | 1.09 | 0.797 | 1.01 | 0.944 | 0.976 | 0.362 | 0.342 | 0.33 | 0.753 | 0.531 | 0.593 | 1.02 | 1.1 | 1.01 | 1.01 | 1.01 | 1.07 | 1.08
HCC-44 | 0.51 | 0.523 | 0.5 | 0.524 | 1.04 | 0.911 | 0.901 | 0.95 | 0.968 | 0.983 | 0.995 | 1 | 1 | 0.863 | 0.759 | 0.691 | 0.775 | 0.905 | 0.827 | 0.734
H3255 | 0.577 | 0.606 | 0.622 | 0.595 | 0.216 | 0.231 | 0.218 | 0.277 | 0.303 | 0.318 | 0.809 | 0.858 | 0.794 | 0.659 | 0.846 | 0.686 | 0.676 | 0.63 | 0.742 | 0.605
NCI-H647 | 0.68 | 0.612 | 0.646 | 0.745 | 1.22 | 1.12 | 0.173 | 0.346 | 0.362 | 0.364 | 0.424 | 0.444 | 0.249 | 1.44 | 1.45 | 1.04 | 1.13 | 0.976 | 1.16 | 0.395
NCI-H23 | 0.561 | 0.644 | 0.599 | 0.347 | 1.23 | 1.03 | 0.319 | 0.555 | 0.497 | 0.4 | 0.356 | 0.27 | 0.183 | 0.76 | 0.735 | 0.512 | 0.749 | 0.946 | 0.943 | 0.173
NCI-H460 | 0.996 | 0.864 | 0.679 | 0.656 | 1.45 | 0.956 | 0.855 | 0.163 | 0.142 | 0.06 | 0.738 | 0.563 | 0.544 | 0.49 | 0.464 | 0.44 | 0.511 | 1.84 | 1.13 | 1.04
EKVX | 0.692 | 0.755 | 0.73 | 0.67 | 0.209 | 0.206 | 0.252 | 0.391 | 0.403 | 0.414 | 0.738 | 0.815 | 0.656 | 0.898 | 1.02 | 0.91 | 0.874 | 1.11 | 1.11 | 1.06
EPLC-272H | 0.284 | 0.308 |  | 0.273 | 0.958 | 1.01 | 0.119 | 0.318 | 0.339 | 0.365 | 0.222 | 0.24 | 0.168 | 0.996 | 1.08 | 0.904 | 0.98 | 0.946 | 0.83 | 0.451
NCI-H2126 | 0.697 | 0.793 | 0.706 | 0.716 | 0.761 | 0.772 | 0.689 | 0.319 | 0.339 | 0.369 | 1.06 | 1.01 | 1.01 | 0.757 | 0.772 | 0.719 | 0.714 | 1.08 | 1.12 | 1.07
LXF-289 | 0.999 | 0.859 | 0.857 | 0.731 | 0.894 | 0.883 | 0.737 | 0.611 | 0.559 | 0.558 | 1.08 | 1.07 | 0.966 | 1.07 | 1.09 | 0.998 | 0.907 | 1.02 | 0.978 | 0.78
NCI-H2405 | 0.643 | 0.668 | 0.609 | 0.618 | 0.91 | 1.07 | 0.753 | 0.486 | 0.536 | 0.463 | 0.7 | 0.764 | 0.528 | 0.794 | 0.718 | 0.751 | 0.751 | 1.05 | 0.77 | 0.957
NCI-H1755 | 0.757 | 0.676 | 0.686 | 0.703 | 1.02 | 1 | 0.942 | 0.438 | 0.462 | 0.413 | 0.422 | 0.47 | 0.43 | 1.02 | 1.02 | 0.787 | 0.945 | 0.938 | 0.92 | 0.903

— the supplement of paper PMC10307832
